Laboratory results: publication PMC8765781, “A platform of assays for the discovery of anti-Zika small-molecules with activity in a 3D-bioprinted outer-blood-retina model” (PLoS ONE, 2022)
pIC50: −log10 of the molar value. Where two headings read alike, the source gives them in different places. *1 amine or outer side, *2 acyl side, *3 side chain or, on linkers, in order; H or OH if unused. Where a SMILES comes first, the peptide text is derived from it. [ ]: non-standard residue; d: D form. The star is where a group is joined. ξ: configuration not given here. X2 = CCC(C)(N*)C(=O)C1CC[C@@H](C(=O)N[CH]Cc2ccccc2)N1; X1 = O=C([C@@H]1CC(O)CN1[*:1])[*:2]; aIle = CC[C@@H](C)[C@H](N)C(=O)O; Thr(3ξ) = CC(O)[C@H](N)C(=O)O; ξIva = CCC(C)(N)C(=O)O; Aib = CC(C)(N)C(=O)O

Assays:
[1] = test system: WNV (Kern515/WN02)
[2] = test system: ZIKV
[3] = test system: YFV (YFV 17D)
[4] = test system: DENV (Dengue virus type 2, strain New Guinea C)
[5] = in vitro; details: African green monkey
[6] = test system: wild-type ZIKV (Ugandan MR766 strain) in Vero cells; assay: ZIKV cytopathic effect (CPE) inhibition qHTS assay, CellTiter-Glo readout; format: cell-based, Zika virus; details: for AC50 / pIC50: Zika virus; for pIC50: read-out: ZIKV-infection (CPE, ZIKV Antiviral Assays), IC50
[7] = test system: ZIKV-mCherry (Cambodian strain FSS13025); assay: microbe, parasite or virus in culture; format: cell-based, Zika virus; details: for AC50: Zika virus, Vero
[8] = test system: ZIKV-RLuc (Cambodian strain FSS13025); assay: microbe, parasite or virus in culture; format: cell-based, Zika virus; details: Zika virus, Vero, 48 h, read-out: Rluc-ZIKV (ZIKV Antiviral Assays), IC50
[9] = test system: caspase-3 activity induced by ZIKV in Vero cells; assay: cells; format: cell-based; details: Zika virus, read-out: Caspase 3 (ZIKV Antiviral Assays), IC50
[10] = Vero, read-out: Log AC50 (M) (converted)
[11] = Vero, from Hill fit of the response curve, 50% of maximum activity response, 194 cherry-picked compounds, protocol name not given, read-out: AC50
[12] = Vero, potency in log units (Molar) from Hill fit of the response curve, 194 cherry-picked compounds, protocol name not given, read-out: Log AC50 (converted)
[13] = Vero cells, wild-type ZIKV MOI 1, 48 hr, unit inferred
[14] = difference between neutral response and maximum compound response
[15] = read-out: Log AC50 (M) (converted)
[16] = ZIKV-infected Vero cells, 48 hr, unit inferred

SMILES	Efficacy [6]	AC50 ([6]; Vero) [M]	pIC50 ([6]; Vero, 48 h)	AC50 [6, 10] [M]	CC-v2 (curve class of the dose response curve) [7]	Efficacy (difference between neutral response and maximum compound response) [7]	Max Resp (difference between neutral response and response at highest compound concentration) [7]	pIC50 [8]	pIC50 ([9]; Vero, 48 h)	CC50 [5] [µM]	CC-v2 (curve class classification of the dose response curve) [6]	CC50 at 48 h [5] [µM]	AC50 [6, 11] [M]	AC50 [6, 12] [M]	pIC50 [6, 13]	Efficacy [6, 14]	AC50 [7] [M]	AC50 [7, 15] [M]	pIC50 [9, 16]	other results
CCN(CC)CCCC(C)Nc1ccnc2cc(Cl)ccc12 (stereo not drawn) [NCGC00015256, chloroquine, reference compound]	–	–	–	–	–	–	–	–	–	–	–	–	–	–	–	–	–	–	–	WHV active Yes/No [1]: No; ZIKV active Yes/No [2]: No; SI value YFV (CC50/EC50) [3]: 1.2; YFV active Yes/No [3]: No; DENV active Yes/No [4]: No
C[C@@H]1O[C@@H](O[C@H]2[C@H](O[C@H]3[C@H](O)[C@@H](C(=O)O)O[C@@H](O[C@H]4CC[C@@]5(C)C(CC[C@]6(C)C5CC[C@]57OC[C@@]8(CCC(C)(C)CC85)[C@H](O)C[C@]76C)C4(C)C)[C@@H]3O[C@@H]3O[C@H](CO)[C@@H](O[C@@H]4OC[C@@H](O)[C@H](O)[C@H]4O)[C@H](O)[C@H]3O)O[C@H](CO)[C@H](O)[C@@H]2O)[C@H](O)[C@H](O)[C@H]1O (stereo partly drawn) [NCGC00384492-01]	-27.701	1.1e-05	4.96	1.1e-05	-1.4	-52.527	-99.118	5.25	5.25	–	–	–	–	–	–	–	–	–	–	CC50 at 48 h ([5]; Vero cells): > 50 µM
C=C(C)C(=O)O[C@H]1CC2=CC(C/C(C)=C/[C@H]3OC(=O)C(=C)[C@H]13)OC2=O (stereo partly drawn) [NCGC00384526-01]	-93.113	1.43e-05	4.84	1.43e-05	4	0	-97.701	4.99	5.19	> 50	-1.1	–	–	–	–	–	–	–	–	–
C=C1CC[C@@]2(OC1)O[C@H]1CC3C4CC=C5C[C@@H](O[C@@H]6O[C@@H](C)[C@H](O)[C@@H](O)[C@H]6O)C[C@@H](O[C@@H]6O[C@H](C)[C@H](O)[C@H](O)[C@H]6O[C@@H]6O[C@@H](C)[C@H](O)[C@@H](O)[C@H]6O)[C@]5(C)C4CC[C@]3(C)[C@H]1[C@@H]2C (stereo partly drawn) [NCGC00384710-01]	–	–	–	–	-1.2	-59.162	-100.305	5.16	–	–	–	> 50	1.23e-05	1.23e-05	4.91	-26.266	7.14e-07	7.14e-07	5.91	–
C=C(C)C(C)C1OC23CC4(CO2)C(CCC2C5(C)CCC(OC6OCC(O)C(OC7OC(CO)C(O)C(OC8OCC(O)C(O)C8O)C7O)C6OC6OC(CO)C(O)C6O)C(C)(C)C5CCC24C)C3C(C)(O)C1OC(C)=O (stereo not drawn) [NCGC00384732-01]	–	–	–	–	-1.4	-78.707	-96.911	5.16	–	–	–	> 50	1.38e-05	1.38e-05	4.86	-32.277	–	–	6.80	–
C[C@@H]1O[C@@H](O[C@H]2[C@H](OC(=O)[C@]34CCC(C)(C)C[C@H]3C3=CCC5[C@@]6(C)C[C@H](O)[C@H](O[C@@H]7O[C@H](C(=O)O)[C@@H](O)[C@H](O)[C@H]7O)[C@@](C)(CO)C6[C@H](O)C[C@@]5(C)[C@]3(C)CC4)OC[C@H](O)[C@@H]2O)[C@H](O)[C@H](O)[C@H]1O[C@@H]1OC[C@@H](O)[C@H](O[C@@H]2O[C@@H](C)[CH][C@@H](O)[C@H]2O)[C@H]1O (stereo partly drawn) [NCGC00384879-01]	-56.214	4.36e-06	5.36	4.36e-06	-1.2	-58.138	-66.904	6.89	5.25	> 50	-3	–	–	–	–	–	6.35e-10	6.35e-10	–	–
CC1(C)CC[C@]2(C(=O)O)CC[C@]3(C)C(=CCC4[C@@]5(C)C[C@H](O)[C@H](O[C@@H]6OC[C@H](O)[C@H](O)[C@H]6O)[C@@](C)(CO)C5CC[C@]43C)[C@@H]2C1 (stereo partly drawn) [NCGC00384893-01]	-24.539	5.44e-06	5.26	5.44e-06	-1.4	-59.557	-100.29	5.01	< 4.32	–	–	–	–	–	–	–	–	–	–	CC50 at 48 h ([5]; Vero cells): > 50 µM
C[C@H]1CC[C@@]2(OC1)O[C@H]1CC3C4CC[C@H]5C[C@@H](O[C@@H]6O[C@H](CO)[C@H](O[C@@H]7O[C@H](CO)[C@@H](O)[C@H](O[C@@H]8OC[C@@H](O)[C@H](O)[C@H]8O)[C@H]7O[C@@H]7O[C@H](CO)[C@@H](O)[C@H](O)[C@H]7O)[C@H](O)[C@H]6O)[C@H](O)C[C@]5(C)C4=CC(=O)[C@]3(C)[C@H]1[C@@H]2C (stereo partly drawn) [NCGC00385095-01]	–	–	–	–	-1.4	-65.601	-99.657	5.16	–	–	–	> 50	1.55e-05	1.55e-05	4.81	-21.201	–	–	5.11	–
CC[C@@H](C)[C@H](NC(=O)C(C)(C)NC(=O)[C@H](CCC(N)=O)NC(=O)C(C)(CC)NC(=O)[C@H](Cc1c[nH]c2ccccc12)NC(C)=O)C(=O)N[C@H](C(=O)NC(C)(C)C(=O)N[C@@H](CC(C)C)C(=O)NC(C)(C)C(=O)N1CCC[C@H]1C(=O)N[C@@H](CCC(N)=O)C(=O)NC(C)(C)C(=O)N1CC(O)C[C@H]1C(=O)NC(C)(CC)C(=O)C1CC[C@@H](C(=O)N[CH]Cc2ccccc2)N1)C(C)O (stereo partly drawn) [NCGC00385349-01] (Ac-W[ξIva]Q[Aib][aIle][Thr(3ξ)][Aib]L[Aib]PQ[Aib][X1]-X2)	-36.779	1e-05	5.00	1e-05	-1.4	-52.827	-100.29	5.34	< 4.32	> 50	-3	–	–	–	–	–	–	–	–	–
CCC/C=C/C(=O)O[C@H]1CC(C)(C)CC2[C@@]13[C@H](O)C[C@]1(C)[C@@]2(CCC2[C@@]4(C)CC[C@H](O[C@@H]5O[C@H](C(=O)O)[C@@H](O)[C@H](O[C@@H]6O[C@H](CO)[C@H](O)[C@H](O)[C@H]6O[C@@H]6O[C@@H](C)[C@H](O)[C@@H](O)[C@H]6O[C@@H]6OC[C@](O)(CO)[C@H]6O)[C@H]5O[C@@H]5O[C@H](CO)[C@H](O)[C@H](O)[C@H]5O)C(C)(C)C4CC[C@]21C)O[C@H]3O (stereo partly drawn) [NCGC00385970-01]	–	–	–	–	-1.3	-68.04	-100.305	5.65	–	> 50	–	–	3.09e-06	3.09e-06	5.51	-40.513	2.53e-06	2.53e-06	6.30	CC-v2 (curve class classification of the dose response curve) ([6]; curve class v2 (Inglese et al. 2006)): -1.2
